Experimental findings from ChEMBL document CHEMBL5291721, “A preclinical secondary pharmacology resource illuminates target-adverse drug reaction associations of marketed drugs” (Nat Commun, 2023) are described below.

Test [1] addresses T1, Muscarinic acetylcholine receptor M4 (Homo sapiens, UniProt P08173).
T1 sequence (P08173 whole entry): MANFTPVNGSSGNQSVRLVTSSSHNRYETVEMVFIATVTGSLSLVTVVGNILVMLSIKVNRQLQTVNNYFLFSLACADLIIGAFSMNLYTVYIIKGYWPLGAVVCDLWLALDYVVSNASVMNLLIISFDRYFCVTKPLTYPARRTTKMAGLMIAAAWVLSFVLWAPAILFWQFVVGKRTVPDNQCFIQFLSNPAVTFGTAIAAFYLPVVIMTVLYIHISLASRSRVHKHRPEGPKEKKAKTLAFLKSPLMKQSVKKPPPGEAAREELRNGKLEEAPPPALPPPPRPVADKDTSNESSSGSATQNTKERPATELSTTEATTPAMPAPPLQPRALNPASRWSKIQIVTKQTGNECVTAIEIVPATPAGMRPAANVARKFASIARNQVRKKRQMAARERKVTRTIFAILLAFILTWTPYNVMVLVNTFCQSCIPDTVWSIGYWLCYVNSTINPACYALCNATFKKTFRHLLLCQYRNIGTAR

Test [2] has as its target T2, Substance-K receptor (Homo sapiens, UniProt P21452).
T2 sequence (P21452 whole entry): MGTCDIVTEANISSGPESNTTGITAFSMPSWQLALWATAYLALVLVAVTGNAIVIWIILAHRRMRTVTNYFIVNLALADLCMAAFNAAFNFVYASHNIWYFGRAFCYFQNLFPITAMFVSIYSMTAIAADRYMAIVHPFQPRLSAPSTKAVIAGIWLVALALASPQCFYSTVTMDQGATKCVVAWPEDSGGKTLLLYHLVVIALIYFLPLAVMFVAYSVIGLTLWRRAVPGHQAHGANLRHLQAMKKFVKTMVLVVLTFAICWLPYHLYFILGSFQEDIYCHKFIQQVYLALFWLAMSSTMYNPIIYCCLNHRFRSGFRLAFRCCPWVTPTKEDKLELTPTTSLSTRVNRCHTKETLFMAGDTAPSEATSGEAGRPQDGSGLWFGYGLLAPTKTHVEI

For test [3], the target named is 5-hydroxytryptamine receptor 2A (Homo sapiens, UniProt P28223).
5-hydroxytryptamine receptor 2A, sequence (P28223 whole entry): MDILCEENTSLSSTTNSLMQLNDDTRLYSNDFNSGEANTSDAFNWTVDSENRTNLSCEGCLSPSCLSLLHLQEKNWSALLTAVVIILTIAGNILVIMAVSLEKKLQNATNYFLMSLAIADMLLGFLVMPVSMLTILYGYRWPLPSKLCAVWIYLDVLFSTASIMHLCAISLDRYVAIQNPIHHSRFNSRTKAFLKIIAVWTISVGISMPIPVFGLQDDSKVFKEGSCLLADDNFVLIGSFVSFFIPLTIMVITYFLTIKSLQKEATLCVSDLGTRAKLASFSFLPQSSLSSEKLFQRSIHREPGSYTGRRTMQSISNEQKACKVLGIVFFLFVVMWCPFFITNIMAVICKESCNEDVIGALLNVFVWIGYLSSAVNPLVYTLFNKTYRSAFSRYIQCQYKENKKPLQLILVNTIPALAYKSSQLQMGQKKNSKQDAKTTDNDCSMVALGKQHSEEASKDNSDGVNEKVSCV
In test [4] the target is T3, Nuclear receptor subfamily 1 group I member 3 (Homo sapiens, UniProt Q14994).
T3 sequence (Q14994 whole entry): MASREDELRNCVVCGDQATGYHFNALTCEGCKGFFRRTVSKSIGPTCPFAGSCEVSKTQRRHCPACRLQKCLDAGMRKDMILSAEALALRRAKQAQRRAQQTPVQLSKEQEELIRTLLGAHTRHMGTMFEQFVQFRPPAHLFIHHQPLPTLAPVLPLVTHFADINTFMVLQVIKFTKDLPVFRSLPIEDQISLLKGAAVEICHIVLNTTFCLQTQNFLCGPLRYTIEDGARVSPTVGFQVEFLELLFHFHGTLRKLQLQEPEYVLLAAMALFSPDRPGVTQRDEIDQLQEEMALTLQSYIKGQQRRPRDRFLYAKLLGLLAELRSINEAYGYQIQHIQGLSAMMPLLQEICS
In kind it is functional.

Test [5] addresses T4, Oxysterols receptor LXR-beta (Homo sapiens, UniProt P55055).
T4 sequence (P55055 whole entry): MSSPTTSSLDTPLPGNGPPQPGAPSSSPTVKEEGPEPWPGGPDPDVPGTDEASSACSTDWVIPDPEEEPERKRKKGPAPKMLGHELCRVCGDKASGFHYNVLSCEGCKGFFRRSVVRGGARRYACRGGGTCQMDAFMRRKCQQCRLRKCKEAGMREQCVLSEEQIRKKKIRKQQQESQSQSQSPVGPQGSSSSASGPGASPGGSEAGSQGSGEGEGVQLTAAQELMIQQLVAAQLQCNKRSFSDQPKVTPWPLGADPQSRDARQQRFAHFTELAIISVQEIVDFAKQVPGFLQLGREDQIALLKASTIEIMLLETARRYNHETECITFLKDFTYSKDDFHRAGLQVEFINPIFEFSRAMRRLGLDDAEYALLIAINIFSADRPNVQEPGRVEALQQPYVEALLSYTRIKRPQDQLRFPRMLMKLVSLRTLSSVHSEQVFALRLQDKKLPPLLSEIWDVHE
In kind it is functional.

Test [6] addresses T5, Oxysterols receptor LXR-alpha (Homo sapiens, UniProt Q13133).
T5 sequence (Q13133 whole entry): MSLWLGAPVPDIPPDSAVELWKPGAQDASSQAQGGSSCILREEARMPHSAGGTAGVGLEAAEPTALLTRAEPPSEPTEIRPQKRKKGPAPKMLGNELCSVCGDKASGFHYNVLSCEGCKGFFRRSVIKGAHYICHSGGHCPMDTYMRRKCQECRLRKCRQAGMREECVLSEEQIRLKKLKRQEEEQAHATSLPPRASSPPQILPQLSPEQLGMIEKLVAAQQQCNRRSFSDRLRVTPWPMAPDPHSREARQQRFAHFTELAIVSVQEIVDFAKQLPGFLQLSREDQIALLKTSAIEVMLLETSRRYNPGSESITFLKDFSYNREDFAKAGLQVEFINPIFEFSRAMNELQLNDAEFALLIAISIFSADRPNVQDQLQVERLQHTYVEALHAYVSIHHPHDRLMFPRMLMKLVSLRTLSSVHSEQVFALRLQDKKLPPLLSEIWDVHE
In kind it is functional.

Test [7] deals with T6, Bile acid receptor (Homo sapiens, UniProt Q96RI1).
T6 sequence (Q96RI1 whole entry): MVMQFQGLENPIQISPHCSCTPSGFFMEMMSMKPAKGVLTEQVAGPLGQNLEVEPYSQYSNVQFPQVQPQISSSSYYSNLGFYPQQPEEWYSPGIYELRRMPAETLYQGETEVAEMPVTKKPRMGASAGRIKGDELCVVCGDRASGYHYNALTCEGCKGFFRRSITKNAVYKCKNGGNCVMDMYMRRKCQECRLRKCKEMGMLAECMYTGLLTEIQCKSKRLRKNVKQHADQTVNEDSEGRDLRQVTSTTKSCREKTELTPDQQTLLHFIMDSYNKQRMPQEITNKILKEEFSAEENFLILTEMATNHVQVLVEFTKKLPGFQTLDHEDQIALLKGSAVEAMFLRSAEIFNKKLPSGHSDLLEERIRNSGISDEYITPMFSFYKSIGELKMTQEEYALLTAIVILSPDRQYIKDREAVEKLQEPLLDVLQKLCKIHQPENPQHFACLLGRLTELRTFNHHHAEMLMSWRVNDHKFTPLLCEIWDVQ
In kind it is functional.
Note: assay procedure not described here.

Turning to `CN(C)CCC(c1ccc(Cl)cc1)c1ccccn1` (centres undefined) [CHLORPHENIRAMINE], the AC50 in test [1] and in test [2] was greater than 10 µM in each case.
In the case of `Cn1nnc2c(C(N)=O)ncn2c1=O` [TEMOZOLOMIDE], the AC50 (usually the concentration giving half of the maximal activity seen) in test [3] is greater than 10 µM.
In the case of `CN1C(C(=O)Nc2ccccn2)=C(O)c2sc(Cl)cc2S1(=O)=O` [LORNOXICAM], the AC50 in test [4] is greater than 30 µM; in test [5], greater than 30 µM; in test [6] it was greater than 30 µM; in test [3], greater than 10 µM; in test [7] it was greater than 30 µM.
Take `Cc1ccc(-c2cc(C(F)(F)F)nn2-c2ccc(S(N)(=O)=O)cc2)cc1` [CELECOXIB]: the AC50 in test [1] and in test [2] was greater than 10 µM throughout.
For `NCC(CC(=O)O)c1ccc(Cl)cc1` (centres undefined) [BACLOFEN], the AC50 in test [1] and in test [2] was greater than 10 µM in each case.
With `CCC(C)n1ncn(-c2ccc(N3CCN(c4ccc(OCC5COC(Cn6cncn6)(c6ccc(Cl)cc6Cl)O5)cc4)CC3)cc2)c1=O` (centres undefined) [ITRACONAZOLE], the AC50 in test [4] is greater than 30 µM.
As for `CS(=O)(=O)c1ccc(C2=C(c3ccccc3)C(=O)OC2)cc1` [ROFECOXIB], the AC50 in test [1] and in test [2] was greater than 10 µM each time.
`Cc1c(C(=O)NN2CCCCC2)nn(-c2ccc(Cl)cc2Cl)c1-c1ccc(Cl)cc1` [RIMONABANT]: the AC50 was 6.6 µM in test [4]; greater than 30 µM in test [5]; greater than 30 µM in test [6]; greater than 10 µM in test [1]; greater than 10 µM in test [3]; greater than 10 µM in test [2]. This compound came in with a concentration at half-maximal activity (AC50) in test [7] of 14 µM.
Regarding `N[C@@H]1[C@H]2CN(c3nc4c(cc3F)c(=O)c(C(=O)O)cn4-c3ccc(F)cc3F)C[C@@H]12` [TROVAFLOXACIN], in test [4], the AC50 is greater than 30 µM.
The compound `O=C1Nc2ccc(Cl)cc2[C@@](C#CC2CC2)(C(F)(F)F)O1` [EFAVIRENZ] registered an AC50 in test [3] of 3.79 µM.
